The values that follow are results of earlier work, collected in patent US20110092602A1 (priority 2008, published 2011).

Where two headings read alike, the source gives them in different places.

For data set [1] the following is noted: pH 7.
Experiment in data set [2]: not given
This is another data set of the same source.

Consider `COc1cccc([C@]2(O)CCCC[C@H]2CN(C)C)c1.Cl` (racemic) [Tramadol hydrochloride, (±)cis-2-[(dimethylamino)methyl]-1-(3-methoxyphenyl)cyclohexanol hydrochloride], for which, in data set [1], the “n-octanol/water log partition coefficient (logP)” value is given as 1.35. Further, the solubility result is reported as “readily soluble” (ethanol) and “readily soluble” (water).
With `CN(C)C[C@H]1CCCC[C@]1(O)c1cccc(O)c1` [Example M1], in the data set with μ-opioid receptors, the “affinity of binding to μ-opioid receptors” value is given as “higher affinity”. Also, the “potency in μ-opioid binding relative to tramadol” value in the data set on μ-opioid receptors (animal models) is reported as 200 times. Besides, the “potency in producing analgesia relative to tramadol” value in data set [2] (animal models) was “up to 6 times”.
As to `COc1cccc(C2(O)CCCCC2CN(C)C)c1` (centres unmarked) [Tramadol, 2-dimethylaminomethyl-1-(3-methoxyphenyl)cyclohexanol], the “affinity of binding to μ-opioid receptors” value in the data set on μ-opioid receptors was “low affinity”. In addition, the “antagonism of analgesia by the opiate antagonist naloxone” value in data set [2] (several animals tests) is “only partially antagonized”.
